# In patent US20240299385A1 (ReWind Therapeutics NV, priority 2021, published 2024):
# Target: T1, human GPR17 receptor (Homo sapiens, UniProt Q13304)
# T1 construct: host or cells: HEK-293
# Assay: Calcium mobilization functional assay (Fluo-8, FLIPR TETRA) in HEK-293 hGPR17 (Gα-q assay)
# Format: cell-based
# Conditions: antagonism of MDL29,951 (~EC80) induced Ca2+ signal; cell line (HEK-293 hGPR17 or HEK-293 Suchi5 hGPR17) not given
# Method in brief: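 Fluo-8-loaded HEK-293 hGPR17 cells (60 min dye loading, room temperature) were preincubated with compound for twenty minutes, then challenged with agonist MDL29,951 at ~EC80, 500 nM. Intracellular calcium release via Gα-q was recorded as FLIPR fluorescence for a further 2 minutes; compounds tested in duplicate.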
# T1 sequence (Q13304 whole entry): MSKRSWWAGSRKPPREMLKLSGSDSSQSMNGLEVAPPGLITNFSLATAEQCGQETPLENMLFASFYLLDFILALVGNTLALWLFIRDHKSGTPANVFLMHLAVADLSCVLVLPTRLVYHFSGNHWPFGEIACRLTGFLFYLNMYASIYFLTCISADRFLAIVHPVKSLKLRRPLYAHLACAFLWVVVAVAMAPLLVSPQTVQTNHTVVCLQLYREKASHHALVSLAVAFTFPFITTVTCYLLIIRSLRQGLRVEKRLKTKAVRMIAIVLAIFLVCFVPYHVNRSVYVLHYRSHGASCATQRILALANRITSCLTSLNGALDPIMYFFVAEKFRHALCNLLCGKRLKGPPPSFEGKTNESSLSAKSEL
row,SMILES,IC50
1,"Cc1cccnc1-c1cc(S(=O)(=O)Nc2cc(F)c(C(F)(F)F)cc2F)c[nH]1 [Cpd 155, N-[2,5-difluoro-4-(trifluoromethyl)phenyl]-5-(3-methyl-2-pyridyl)-1H-pyrrole-3-sulfonamide]",< 0.5 µM
2,"Cn1ccnc1-c1cc(S(=O)(=O)Nc2cc(F)c(C(F)(F)F)cc2F)c[nH]1 [Cpd 156, N-[2,5-difluoro-4-(trifluoromethyl)phenyl]-5-(1-methylimidazol-2-yl)-1H-pyrrole-3-sulfonamide]",0.5 to 5 µM
3,"O=S(=O)(Nc1ccc(OC(F)(F)F)cc1F)c1c[nH]c(-c2ccccn2)c1 [Cpd 157, N-[2-fluoro-4-(trifluoromethoxy)phenyl]-5-(2-pyridyl)-1H-pyrrole-3-sulfonamide]",0.5 to 5 µM
4,"O=S(=O)(Nc1cc(F)c(C(F)(F)F)cc1F)c1c[nH]cc1Cc1ccccc1 [Cpd 158, 4-benzyl-N-[2,5-difluoro-4-(trifluoromethyl)phenyl]-1H-pyrrole-3-sulfonamide]",0.5 to 5 µM
5,"O=S(=O)(Nc1ccc(F)cc1F)c1c[nH]c(-c2ncccc2F)c1 [Cpd 160, N-(2,4-difluorophenyl)-5-(3-fluoro-2-pyridyl)-1H-pyrrole-3-sulfonamide]",5 to 50 µM
6,"COc1cc(C#N)ccc1NS(=O)(=O)c1c[nH]cc1Cc1ccccc1 [Cpd 161, 4-benzyl-N-(4-cyano-2-methoxy-phenyl)-1H-pyrrole-3-sulfonamide]",5 to 50 µM
7,"N#Cc1ccc(NS(=O)(=O)c2c[nH]cc2Cc2ccccc2)cc1 [Cpd 162, 4-benzyl-N-(4-cyanophenyl)-1H-pyrrole-3-sulfonamide]",0.5 to 5 µM
8,"O=S(=O)(Nc1ccccc1F)c1c[nH]cc1Cc1ccccc1 [Cpd 163, 4-benzyl-N-(2-fluorophenyl)-1H-pyrrole-3-sulfonamide]",5 to 50 µM
9,"O=S(=O)(Nc1ncc(Cl)cc1F)c1c[nH]c(-c2ccccn2)c1 [Cpd 164, N-(5-chloro-3-fluoro-2-pyridyl)-5-(2-pyridyl)-1H-pyrrole-3-sulfonamide]",0.5 to 5 µM
10,"COc1cc(CC#N)ccc1NS(=O)(=O)c1c[nH]c(-c2ccccc2)c1 [Cpd 165, N-[4-(cyanomethyl)-2-methoxy-phenyl]-5-phenyl-1H-pyrrole-3-sulfonamide]",0.5 to 5 µM
11,"N#Cc1cnc(NS(=O)(=O)c2c[nH]c(-c3ccccc3)c2)c(F)c1 [Cpd 166, N-(5-cyano-3-fluoro-2-pyridyl)-5-phenyl-1H-pyrrole-3-sulfonamide]",0.5 to 5 µM
12,"COc1cc(Br)cnc1NS(=O)(=O)c1c[nH]c(-c2ccccn2)c1 [Cpd 167, N-(5-bromo-3-methoxy-2-pyridyl)-5-(2-pyridyl)-1H-pyrrole-3-sulfonamide]",0.5 to 5 µM
13,"O=S(=O)(Nc1ncc(Br)cc1F)c1c[nH]c(-c2ccccc2)c1 [Cpd 168, N-(5-bromo-3-fluoro-2-pyridyl)-5-phenyl-1H-pyrrole-3-sulfonamide]",0.5 to 5 µM
14,"N#CCc1cnc(NS(=O)(=O)c2c[nH]c(-c3ccccc3)c2)c(F)c1 [Cpd 169, N-[5-(cyanomethyl)-3-fluoro-2-pyridyl]-5-phenyl-1H-pyrrole-3-sulfonamide]",5 to 50 µM
15,"COc1cccnc1-c1cc(S(=O)(=O)Nc2cc(F)c(C(F)(F)F)cc2F)c[nH]1 [Cpd 170, N-[2,5-difluoro-4-(trifluoromethyl)phenyl]-5-(3-methoxy-2-pyridyl)-1H-pyrrole-3-sulfonamide]",0.5 to 5 µM
16,"N#Cc1ccc(NS(=O)(=O)c2c[nH]cc2Cc2cccc(F)c2)c(F)c1 [Cpd 171, N-(4-cyano-2-fluoro-phenyl)-4-[(3-fluorophenyl)methyl]-1H-pyrrole-3-sulfonamide]",< 0.5 µM
17,"Cc1cc(F)c(NS(=O)(=O)c2c[nH]c(-c3ccccn3)c2)cc1F [Cpd 173, N-(2,5-difluoro-4-methyl-phenyl)-5-(2-pyridyl)-1H-pyrrole-3-sulfonamide]",< 0.5 µM
18,"O=S(=O)(Nc1cc(F)c(-c2ccccc2)cc1F)c1c[nH]c(-c2ccccn2)c1 [Cpd 174, N-(2,5-difluoro-4-phenyl-phenyl)-5-(2-pyridyl)-1H-pyrrole-3-sulfonamide]",5 to 50 µM
19,"COc1cc(C(F)(F)F)cnc1NS(=O)(=O)c1c[nH]c(-c2ccccc2)c1 [Cpd 175, N-[3-methoxy-5-(trifluoromethyl)-2-pyridyl]-5-phenyl-1H-pyrrole-3-sulfonamide]",0.5 to 5 µM
20,"O=S(=O)(Nc1ncc(C(F)(F)F)cc1F)c1c[nH]c(-c2ccccc2F)c1 [Cpd 176, 5-(2-fluorophenyl)-N-[3-fluoro-5-(trifluoromethyl)-2-pyridyl]-1H-pyrrole-3-sulfonamide]",0.5 to 5 µM
21,"N#Cc1ccc(NS(=O)(=O)c2c[nH]cc2Cc2ccc(F)cc2)c(F)c1 [Cpd 177, N-(4-cyano-2-fluoro-phenyl)-4-[(4-fluorophenyl)methyl]-1H-pyrrole-3-sulfonamide]",< 0.5 µM
22,"O=S(=O)(Nc1cc(F)c(F)cc1F)c1c[nH]c(-c2ccccn2)c1 [Cpd 179, 5-(2-pyridyl)-N-(2,4,5-trifluorophenyl)-1H-pyrrole-3-sulfonamide]",0.5 to 5 µM
23,"COc1cccc(F)c1-c1cc(S(=O)(=O)Nc2cc(F)c(C(F)(F)F)cc2F)c[nH]1 [Cpd 180, N-[2,5-difluoro-4-(trifluoromethyl)phenyl]-5-(2-fluoro-6-methoxy-phenyl)-1H-pyrrole-3-sulfonamide]",0.5 to 5 µM
24,"O=S(=O)(Nc1ccc(Cl)cc1F)c1c[nH]c(-c2ccccn2)c1 [Cpd 181, N-(4-chloro-2-fluoro-phenyl)-5-(2-pyridyl)-1H-pyrrole-3-sulfonamide]",0.5 to 5 µM
25,"N#Cc1ccc(NS(=O)(=O)c2c[nH]cc2Cc2ccccc2F)c(F)c1 [Cpd 182, N-(4-cyano-2-fluoro-phenyl)-4-[(2-fluorophenyl)methyl]-1H-pyrrole-3-sulfonamide]",0.5 to 5 µM
26,"COc1cc(F)c(NS(=O)(=O)c2c[nH]c(-c3ccccn3)c2)cc1F [Cpd 183, N-(2,5-difluoro-4-methoxy-phenyl)-5-(2-pyridyl)-1H-pyrrole-3-sulfonamide]",0.5 to 5 µM
27,"N#Cc1ccc(NS(=O)(=O)c2c[nH]cc2Cc2cccnc2)c(F)c1 [Cpd 184, N-(4-cyano-2-fluoro-phenyl)-4-(3-pyridylmethyl)-1H-pyrrole-3-sulfonamide]",0.5 to 5 µM
28,"C#Cc1cc(F)c(NS(=O)(=O)c2c[nH]c(-c3ccccn3)c2)cc1F [Cpd 185, N-(4-ethynyl-2,5-difluoro-phenyl)-5-(2-pyridyl)-1H-pyrrole-3-sulfonamide]",0.5 to 5 µM
29,"O=S(=O)(Nc1ccc(C(F)(F)F)nc1F)c1c[nH]c(-c2ccccc2)c1 [Cpd 186, N-[2-fluoro-6-(trifluoromethyl)-3-pyridyl]-5-phenyl-1H-pyrrole-3-sulfonamide]",0.5 to 5 µM

# Continued, values first:
row,IC50,SMILES
1,0.5 to 5 µM,"O=S(=O)(Nc1cc2cccnc2cc1F)c1c[nH]c(-c2ccccc2)c1 [Cpd 187, N-(7-fluoro-6-quinolyl)-5-phenyl-1H-pyrrole-3-sulfonamide]"
2,0.5 to 5 µM,"O=S(=O)(Nc1ccc(OC(F)F)nc1F)c1c[nH]c(-c2ccccc2)c1 [Cpd 188, N-[6-(difluoromethoxy)-2-fluoro-3-pyridyl]-5-phenyl-1H-pyrrole-3-sulfonamide]"
3,0.5 to 5 µM,"O=S(=O)(Nc1cc(F)c(C(F)(F)F)cc1F)c1c[nH]c(-c2ccc(F)cn2)c1 [Cpd 189, N-[2,5-difluoro-4-(trifluoromethyl)phenyl]-5-(5-fluoro-2-pyridyl)-1H-pyrrole-3-sulfonamide]"
4,0.5 to 5 µM,"O=S(=O)(Nc1ccc(C(F)(F)F)c(F)c1)c1c[nH]c(-c2ccccn2)c1 [Cpd 190, N-[3-fluoro-4-(trifluoromethyl)phenyl]-5-(2-pyridyl)-1H-pyrrole-3-sulfonamide]"
5,< 0.5 µM,"COc1ncccc1-c1cc(S(=O)(=O)Nc2cc(F)c(C(F)(F)F)cc2F)c[nH]1 [Cpd 191, N-[2,5-difluoro-4-(trifluoromethyl)phenyl]-5-(2-methoxy-3-pyridyl)-1H-pyrrole-3-sulfonamide]"
6,5 to 50 µM,"O=S(=O)(Nc1ncc(Cl)cc1F)c1c[nH]cc1Cc1ccccc1 [Cpd 192, 4-benzyl-N-(5-chloro-3-fluoro-2-pyridyl)-1H-pyrrole-3-sulfonamide]"
7,0.5 to 5 µM,"O=S(=O)(Nc1cc(F)c(Br)cc1F)c1c[nH]cc1Cc1ccccc1 [Cpd 193, 4-benzyl-N-(4-bromo-2,5-difluoro-phenyl)-1H-pyrrole-3-sulfonamide]"
8,0.5 to 5 µM,"N#Cc1ccc(NS(=O)(=O)c2c[nH]cc2Cc2ccccc2Cl)c(F)c1 [Cpd 194, 4-[(2-chlorophenyl)methyl]-N-(4-cyano-2-fluoro-phenyl)-1H-pyrrole-3-sulfonamide]"
9,0.5 to 5 µM,"N#Cc1ccc(NS(=O)(=O)c2c[nH]cc2C(=O)c2ccccc2)c(F)c1 [Cpd 195, 4-benzoyl-N-(4-cyano-2-fluoro-phenyl)-1H-pyrrole-3-sulfonamide]"
10,5 to 50 µM,"COc1ccc(F)c(NS(=O)(=O)c2c[nH]c(-c3ccccn3)c2)c1 [Cpd 196, N-(2-fluoro-5-methoxy-phenyl)-5-(2-pyridyl)-1H-pyrrole-3-sulfonamide]"
11,5 to 50 µM,"O=S(=O)(Nc1cc(F)c(C(F)(F)F)cc1F)c1c[nH]c(-c2ccc(Cl)cn2)c1 [Cpd 197, 5-(5-chloro-2-pyridyl)-N-[2,5-difluoro-4-(trifluoromethyl)phenyl]-1H-pyrrole-3-sulfonamide]"
12,0.5 to 5 µM,"COc1cc(C(F)(F)F)cnc1NS(=O)(=O)c1c[nH]c(-c2ccccn2)c1 [Cpd 198, N-[3-methoxy-5-(trifluoromethyl)-2-pyridyl]-5-(2-pyridyl)-1H-pyrrole-3-sulfonamide]"
13,5 to 50 µM,"O=S(=O)(Nc1cc(C(F)(F)F)ncc1F)c1c[nH]c(-c2ccccc2)c1 [Cpd 199, N-[5-fluoro-2-(trifluoromethyl)-4-pyridyl]-5-phenyl-1H-pyrrole-3-sulfonamide]"
14,5 to 50 µM,"CC(=O)c1ccc(NS(=O)(=O)c2c[nH]c(-c3ccccn3)c2)c(F)c1 [Cpd 200, N-(4-acetyl-2-fluoro-phenyl)-5-(2-pyridyl)-1H-pyrrole-3-sulfonamide]"
